Assay results as given in the NIST ThermoML archive (doi:10.1021/je201334p).

Columns and labels:
[1] = xn = mol fraction of the nth substance listed; details: 101 kPa, Liquid; for speed of sound: Sing-around technique in a fixed-path interferometer; for mass density: Vibrating tube method
[2] = refractive index (Na D-line) (dimensionless); xn = mol fraction of the nth substance listed; details: 101 kPa, Liquid, Standard Abbe refractometry

CCOS(=O)(=O)[O-].CCc1cccc[n+]1CC [1,2-diethylpyridinium ethylsulfate] + O
Details	mass density, 288.15 K [kg/m3]	mass density, 298.15 K [kg/m3]	mass density, 308.15 K [kg/m3]	refractive index, 288.15 K	refractive index, 298.15 K	refractive index, 308.15 K	speed of sound, 288.15 K [m/s]	speed of sound, 298.15 K [m/s]	speed of sound, 308.15 K [m/s]
[1], x2 = 0	1225.93	1219.26	1212.65	–	–	–	1774.5	1745.2	1718.4
[1], x2 = 0.0987	1224.31	1217.63	1211.14	–	–	–	1778.2	1749.1	1722.4
[1], x2 = 0.1089	1224.06	1217.36	1210.87	–	–	–	1778.4	1749.5	1723
[1], x2 = 0.2048	1222.4	1215.83	1209.22	–	–	–	1781.1	1753.9	1727.5
[1], x2 = 0.3037	1219.81	1213.23	1206.65	–	–	–	1787.5	1760.5	1734.4
[1], x2 = 0.3979	1216.82	1210.11	1203.43	–	–	–	1794.1	1767.4	1741.1
[1], x2 = 0.4922	1212.76	1206.04	1199.29	–	–	–	1803.5	1776.8	1750.6
[1], x2 = 0.6018	1205.78	1198.92	1192.05	–	–	–	1817.3	1790.5	1763.7
[1], x2 = 0.7084	1194.96	1187.92	1180.85	–	–	–	1836.4	1809.2	1782.1
[1], x2 = 0.8029	1177.39	1170.26	1163.05	–	–	–	1854.8	1827.2	1799.4
[1], x2 = 0.8984	1138.4	1131.51	1124.48	–	–	–	1846.6	1821.6	1795.6
[1], x2 = 0.9493	1092.23	1086.65	1080.72	–	–	–	1759.2	1746.2	1731.8
[2], x2 = 0	–	–	–	1.51631	1.5135	1.51067	–	–	–
[2], x2 = 0.0987	–	–	–	1.51478	1.51196	1.50914	–	–	–
[2], x2 = 0.1089	–	–	–	1.51458	1.51176	1.50896	–	–	–
[2], x2 = 0.2048	–	–	–	1.51266	1.50984	1.50705	–	–	–
[2], x2 = 0.3037	–	–	–	1.51023	1.50743	1.50461	–	–	–
[2], x2 = 0.3979	–	–	–	1.50723	1.5044	1.50156	–	–	–
[2], x2 = 0.4922	–	–	–	1.50325	1.50042	1.49759	–	–	–
[2], x2 = 0.6018	–	–	–	1.49668	1.49381	1.49094	–	–	–
[2], x2 = 0.7084	–	–	–	1.48656	1.48367	1.48071	–	–	–
[2], x2 = 0.8029	–	–	–	1.47121	1.46831	1.46515	–	–	–
[2], x2 = 0.8984	–	–	–	1.43938	1.43661	1.43375	–	–	–
[2], x2 = 0.9493	–	–	–	1.4043	1.40198	1.40013	–	–	–
